How the values were obtained:
[1] = system: E. coli clinical strain UTI89; assay: Biofilm formation inhibition, crystal violet, E. coli clinical strain UTI89; type: cell-based; conditions: Escherichia coli, 20 ug/ml, read-out: inhibited biofilm formation
Description: (§1) Biofilm inhibition experiments were conducted using an assay adapted from the reported protocol described in Pratt and Kolter, 1998, Molecular Microbiology, 30: 285-293; Li et al., 2001, J. Bacteriol., 183: 897-908. E. coli clinical strain UTI89 was grown in LB in 96 well plates at room temperature for one or two days without shaking. E. coli laboratory strain JM109 was grown in LB plus 0.2% glucose in 96 well plates at room temperature for one day without shaking. To quantify the biofilm mass, the suspension culture was poured out and the biofilm was washed three times with water. The biofilm was stained with 0.1% crystal violet for 20 minutes. The plates were then washed three times with water. OD reading at 540 nm was measured to quantify the biofilm mass at the bottom of the wells. Then 95% ethanol was added to dissolve the dye at the bottom and on the wall and the OD reading at 540 nm was measured to quantify the total biofilm mass. To study the overall effect of the compounds (3.6 mg/mL in 100% ethanol as stock solution), it was added with the inoculation and a time course of biofilm mass was measured. Appropriate amounts of 100% ethanol were added to each sample to eliminate the effect of solvent. Each condition had 3-4 replicates on each plate and was performed over multiple days.

[2] = system: P. aeruginosa strain PAO1; assay: Rotating disk reactor (RDR) biofilm test with and without tobramycin; type: cell-based, Pseudomonas aeruginosa; conditions: test compound 100 μg/ml 24 h; for Test Compound, log10 CFU: no tobramycin; for Tobramycin and Test Compound, log10 CFU: then tobramycin 100 μg/ml 2 h
Description: Biofilm formation of P. aeruginosa was evaluated using a standardized biofilm method with a rotating disk reactor (RDR). This method provides a model resembling the formation of biofilms in cystic fibrosis patients. The rotating disk reactor consists of a one-liter glass beaker fitted with a drain spout. The bottom of the vessel contains a magnetically driven rotor with six 1.27 cm diameter coupons constructed from polystyrene. The rotor consists of a star-head magnetic stir bar upon which a disk was affixed to hold the coupons. The vessel with the stir bar was placed on a stir plate and rotated to provide fluid shear. A nutrient solution (AB Trace Medium with 0.3 mM glucose, see Table 1 below for composition) was added through a stopper in the top of the reactor at a flow rate of 5 ml/min. The reactor volume was approximately 180 ml and varied slightly between reactors depending on the placement of the drain spout and the rotational speed of the rotor. At a volume of 180 ml, the residence time of the reactors was 36 minutes. The reactors were operated at room temperature (c.a. 26° C.).
For each test, two RDRs were operated in parallel with one receiving test compound and the other serving as an untreated control. The RDRs were sterilized by autoclave, then filled with sterile medium and inoculated with P. aeruginosa strain PAO1. The reactors were then incubated at room temperature in batch mode (no medium flow) for a period of 24 hours, after which the flow was initiated for a further 24 hour incubation. Test compounds were dissolved in 10 ml ethanol to achieve a concentration of 1.8 mg/ml. After the 48 hours of biofilm development described above, the 10 ml of ethanol containing the test compounds were added to the reactor to achieve a final concentration of approximately 50, 100, or 200 μg/ml. Control reactors received 10 ml of ethanol. The reactors were then incubated for an additional 24 hours in batch (no flow) mode. After this incubation period, the six coupons were removed from each reactor and placed in 12-well polystyrene tissue culture plates with wells containing either 2 ml of a 100 μg/ml tobramycin solution or 2 ml of phosphate-buffered saline (PBS). These plates were incubated at room temperature for two hours. The coupons were then rinsed by three transfers to plates containing 2 ml of fresh PBS. For each two RDR reactors run in parallel, four sets of three coupons were obtained: one set with no test compound treatment and no tobramycin treatment, one set with no test compound treatment and tobramycin treatment, one set treated with a test compound treatment and no tobramycin treatment, and one set treated with a test compound treatment and tobramycin. After rinsing, one coupon of each set of three was stained with a LIVE/DEAD® BacLight™ Bacterial Viability Kit (Molecular Probes, Eugene Oreg.) and imaged using epifluorescent microscopy. The remaining two coupons were placed in 10 ml of PBS and sonicated for five minutes to remove and disperse biofilm cells. The resulting bacterial suspensions were then serially diluted in PBS and plated on tryptic soy agar plates for enumeration of culturable bacteria. The plates were incubated for 24 hours at 37° C. before colony forming units (CFU) were determined.
The results are averages from experiments performed on three separate days for each test compound. The values reported are as log10 CFU.

[3] = system: E. coli clinical strain UTI89; assay: Invasion of E. coli UTI89 into bladder epithelial cells; type: cell-based
Description: The effect of test compounds on bacterial invasion of E. coli clinical strain UTI89 was studied as described in Elsinghorst, et al. 1994, Methods Enzymol, 236:405-420; and Martinez et al., 2000, EMBO J., 19:2803-2812. Epithelial bladder cells were grown in plates. Asiatic acid, corosolic acid, or ursolic acid were added at concentrations of 10 μg/ml, 20 μg/ml, or 40 μg/ml to bacteria and epithelial cells for approximately 5, 15, 30, or 60 minutes with approximately 10^7 CFU of E. coli. Binding was assessed at time zero and invasion was assessed at approximately 5, 15, 30, or 60 minutes from completing the mixture of compound, bacteria, and epithelial cells. As a control ethanol was added to cells to a final concentration of 0.1%. The effect of bacterial viability and bacterial adherence during the infection period was evaluated according to the methods described in Martinez et al., 2000, EMBO J., 19:2803-2812.

[4] = system: E. coli UTI89[pCOMGFP]; assay: Biofilm pods / intracellular bacterial communities (IBC) in mouse bladders, confocal microscopy; type: in vivo, C3H/HeN mice; conditions: for reduction in biofilm pods or intracellular bacterial communities (IBC) in the bladders of mice as compared to the controls: experiment 1: 40 μg/ml intravesical, 30 min pre-incubation, 10^8 CFU, five hours
Description: The experiment was performed using the procedures described in Justice, S. et al., Differentiation and development pathways of uropathogenic Escherichia coli in urinary tract pathogenesis.PNAS, 2004, 101(5), p. 1333-1338. Briefly, E. coli UTI89[pCOMGFP] was prepared after retrieval from frozen stocks by inoculating in LB medium statically for approximately 20 hours. Cells were harvested and suspended in 1 ml of PBS. Cells were diluted to achieve approximately a 10^8 CFU or 10^7 CFU input into C3H/HeN mice (2 mice per group).
Mice were deprived of water for approximately two hours. In experiment 1, all mice were anesthetized with 0.15 cc ketamine cocktail. In experiment 2, all mice were anesthetized with isofluorane. In experiment 1, urine was dispelled from the bladders and approximately 40 μg/ml of test compound or an appropriate amount of ethanol as control was introduced into the bladders via catheterization of the urethra using a tubing coated tuberculin syringe. 30 minutes was allowed to elapse. In experiment 2, bladders were not pre-incubated with test compounds. Bladders were then expelled and an inoculum of 10^8 CFU (Experiment 1) or 10^7 CFU (Experiment 2) of E. coli containing 40 μg/ml of test compound or equivalent amount of ethanol as controls were introduced into the bladders as indicated above.
In experiment 1 five hours elapsed and in experiment 2 six hours elapsed, and then mice were anesthetized and sacrificed. The bladders were removed, bisected, stretched, and fixed in 3% paraformaldehyde for 1 hour at room temperature. Bladders were then permeabilized in 0.01% Triton/PBS for 10 minutes and counter stained with TOPRO3 (Molecular Probes) for 10 minutes for visualization by confocal microscopy. Bladders were mounted on Prolong antifade (Molecular Probes).

[5] = system: E. coli laboratory strain JM109; assay: Biofilm formation inhibition, crystal violet, E. coli laboratory strain JM109; type: cell-based; conditions: Escherichia coli, read-out: inhibited biofilm formation as compared to the controls
Description: as §1

[6] = Bladder concentrations in rats after oral dose; conditions: rat, in vivo; rats; 50 mg/kg oral, single bolus in 50% Labrasol; at 24 hours; read-out: concentration in the bladder
Description: Pharmacokinetic studies of asiatic acid and madecassic acid in rats were performed separately. Asiatic acid and madecassic acid were evaluated at 50 mg/kg (oral). Two animals were assigned to each group. Prior to dosing, a baseline blood sample was taken from each animal. At time zero, asiatic acid and madecassic acid, a single bolus dose in 50% Labrasol (Gattefosse) was given to each animal. Bladders were analyzed at 24 hours. Concentrations of both asiatic acid and madecassic acid in the bladder were approximately 30 μg/g at 24 hours.

[7] = system: bacterial invasion; assay: Bacterial invasion statement of Example 9; conditions: within 15 minutes of administration
[8] = system: cysB gene; conditions: examples of U.S. patent application Ser. No. 11/085,279; cited from earlier work
[9] = 40 μg/ml, 60 minutes, separate experiments (n=4-7)

Row | Compound | inhibition at 20 µg/mL [1] [%] | Test Compound, log10 CFU [2] [log10 CFU] | Tobramycin and Test Compound, log10 CFU [2] [log10 CFU] | reduced invasion of E. coli into bladder epithelial cells as compared to the controls ([3]; 20 μg/ml, 60 minutes, separate experiments (n=4)) [%] | reduced invasion of E. coli into bladder epithelial cells as compared to the controls ([3]; 40 μg/ml, 5 minutes, time series, triplicate) [%] | reduced invasion of E. coli into bladder epithelial cells as compared to the controls ([3]; 40 μg/ml, 15 minutes, time series, triplicate) [%] | reduced invasion of E. coli into bladder epithelial cells as compared to the controls [3, 9] [%] | reduced invasion of E. coli into bladder epithelial cells as compared to the controls ([3]; 40 μg/ml, 60 minutes, time series, triplicate) [%] | reduction in biofilm pods or intracellular bacterial communities (IBC) in the bladders of mice as compared to the controls [4] [%] | reduction in large biofilm pods or large IBC in the bladders of mice as compared to the controls ([4]; experiment 2: 40 μg/ml with inoculum, no pre-incubation, 10^7 CFU, six hours) [%] | appearance of E. coli in mouse bladder, confocal microscopy image (FIG. 3) ([4]; mouse inoculated with E. coli UTI89 and compound, control shows an IBC (FIG. 2)) | inhibition at 5 µg/mL ([5]; JM 109, 5 ug/ml) [%] | inhibition at 10 µg/mL ([5]; JM 109, 10 ug/ml) [%] | concentration at 24 h [6] [ng/g] | bacterial invasion (in words) [7] | expression of a cysB gene in E. coli [8]
1 | C[C@H]1[C@H](C)CC[C@]2(C(=O)O)CC[C@]3(C)C(=CC[C@@H]4[C@@]5(C)C[C@@H](O)[C@H](O)C(C)(C)[C@@H]5CC[C@]43C)[C@H]12 [Corosolic acid, corosolic acid] | ~85 | 7.3 | 4.2 | 65 | 10 | 70 | 90 | 90 | 94 | ~60 | small collection of E coli | – | – | – | – | –
2 | C[C@H]1[C@H](C)CC[C@]2(C(=O)O)CC[C@]3(C)C(=CC[C@@H]4[C@@]5(C)C[C@@H](O)[C@H](O)[C@@](C)(CO)[C@@H]5[C@H](O)C[C@]43C)[C@H]12 [Madecassic acid, madecassic acid] | – | 7.5 | 5.5 | – | – | – | – | – | – | – | – | ~60 | ~75 | ~30000 | significantly reduced bacterial invasion | –
3 | C[C@H]1[C@H](C)CC[C@]2(C(=O)O)CC[C@]3(C)C(=CC[C@@H]4[C@@]5(C)CC[C@H](O)C(C)(C)[C@@H]5CC[C@]43C)[C@H]12 [ursolic acid] | – | – | – | – | – | – | 76 | – | 70 | – | – | – | – | – | – | modulate the expression of a cysB gene

Reference: US20060264411A1, “Control of biofilm formation” (priority 2005, published 2006)
